According to patent publication US9527851B2, “Pyrrole six-membered heteroaryl ring derivative, preparation method thereof, and medicinal uses thereof” (Jiangsu Hengrui Medicine Co., Ltd., priority 2011, dated 2016):
Blank lines part the entries; values can stand above or below the molecule they belong to.

Tests used:
JAK2 kinase = JAK2 kinase (Homo sapiens (Human), UniProt O60674); assay: Assay for inhibiting JAK2 kinase (in vitro kinase assay, HRP anti-phosphotyrosine antibody/TMB absorbance); assay type: biochemical; settings: 20 μM ATP, 50 minutes at room temperature; read-out: IC50 (JAK2/Bio)
Procedure: In vitro activity of compounds of the present invention for inhibiting JAK2 kinase was determined by the following method.

JAK3 kinase = JAK3 kinase (Homo sapiens (Human), UniProt P52333); assay: Assay for inhibiting JAK3 kinase (in vitro kinase assay, HRP anti-phosphotyrosine antibody/TMB absorbance); assay type: biochemical; settings: 50 minutes at room temperature; read-out: IC50 (JAK3/Bio)
Procedure: In vitro activity of compounds of the present invention for inhibiting JAK3 kinase was determined by the following method.

[1] = Pharmacokinetics assay in rats, intragastric administration, plasma by LC/MS/MS; assay type: in vivo, Sprague-Dawley (SD) rats; settings: both sexes, Sprague-Dawley, rat, plasma, po, SD rats, 10 mg/kg; for Vd/F: read-out: Apparent Distribution Volume Vz/F; for AUC: read-out: Area Under Curve AUC; for CL/F: read-out: Clearance CL/F; for half-life: read-out: Half-Life t½ (converted); for MRT: read-out: Mean Residence Time MRT; for Cmax: read-out: Plasma Conc. Cmax
Procedure: Rats were used as test animals. […] The pharmacokinetic behavior of the compounds of the present invention was studied and evaluated in rats.
56 Healthy adult Sprague-Dawley (SD) rats, half male and half female, purchased from SINO-BRITSH SIPPR/BK LAB.
The appropriate amount of test compounds were weighed and mixed with 1.0 mL of dimethyl sulfoxide to prepare a 1.0 mg/mL suspension.
After an overnight fast, SD rats were administered intragastrically at a dose of 10.0 mg/kg and an administration volume of 10 mL/kg.
The plasma samples were stored at −20° C. The rats were fed 2 hours after administration.
Content determination of the test compounds in rat plasma after intragastrically administering at different concentrations: 50 μL of rat plasmas taken at various time points after administration were mixed with 50 μL of internal standard solution and 100 μL of methanol and mixed for 3 minutes by a vortexer. The mixture was centrifuged for 10 minutes at 13,500 rpm. 10 μL of the supernatant was taken from the plasma sample and analyzed by LC-MS/MS.
Pharmacokinetic Parameters of the compounds of the present invention were shown as follows: […]

JAK1 kinase = JAK1 kinase (Homo sapiens (Human), UniProt P23458); assay: Assay for inhibiting JAK1 kinase (in vitro kinase assay, HRP anti-phosphotyrosine antibody/TMB absorbance); assay type: biochemical; settings: 20 μM ATP, 50 minutes at room temperature; read-out: IC50 (JAK1/Bio)
Procedure: In vitro activity of compounds of the present invention for inhibiting JAK1 kinase was determined by the following method.
IC50 values of test compounds was calculated from the data of the test compounds in inhibiting the activity of JAK1 kinase at different concentrations.

Chain of JAK3 kinase (P52333 whole entry): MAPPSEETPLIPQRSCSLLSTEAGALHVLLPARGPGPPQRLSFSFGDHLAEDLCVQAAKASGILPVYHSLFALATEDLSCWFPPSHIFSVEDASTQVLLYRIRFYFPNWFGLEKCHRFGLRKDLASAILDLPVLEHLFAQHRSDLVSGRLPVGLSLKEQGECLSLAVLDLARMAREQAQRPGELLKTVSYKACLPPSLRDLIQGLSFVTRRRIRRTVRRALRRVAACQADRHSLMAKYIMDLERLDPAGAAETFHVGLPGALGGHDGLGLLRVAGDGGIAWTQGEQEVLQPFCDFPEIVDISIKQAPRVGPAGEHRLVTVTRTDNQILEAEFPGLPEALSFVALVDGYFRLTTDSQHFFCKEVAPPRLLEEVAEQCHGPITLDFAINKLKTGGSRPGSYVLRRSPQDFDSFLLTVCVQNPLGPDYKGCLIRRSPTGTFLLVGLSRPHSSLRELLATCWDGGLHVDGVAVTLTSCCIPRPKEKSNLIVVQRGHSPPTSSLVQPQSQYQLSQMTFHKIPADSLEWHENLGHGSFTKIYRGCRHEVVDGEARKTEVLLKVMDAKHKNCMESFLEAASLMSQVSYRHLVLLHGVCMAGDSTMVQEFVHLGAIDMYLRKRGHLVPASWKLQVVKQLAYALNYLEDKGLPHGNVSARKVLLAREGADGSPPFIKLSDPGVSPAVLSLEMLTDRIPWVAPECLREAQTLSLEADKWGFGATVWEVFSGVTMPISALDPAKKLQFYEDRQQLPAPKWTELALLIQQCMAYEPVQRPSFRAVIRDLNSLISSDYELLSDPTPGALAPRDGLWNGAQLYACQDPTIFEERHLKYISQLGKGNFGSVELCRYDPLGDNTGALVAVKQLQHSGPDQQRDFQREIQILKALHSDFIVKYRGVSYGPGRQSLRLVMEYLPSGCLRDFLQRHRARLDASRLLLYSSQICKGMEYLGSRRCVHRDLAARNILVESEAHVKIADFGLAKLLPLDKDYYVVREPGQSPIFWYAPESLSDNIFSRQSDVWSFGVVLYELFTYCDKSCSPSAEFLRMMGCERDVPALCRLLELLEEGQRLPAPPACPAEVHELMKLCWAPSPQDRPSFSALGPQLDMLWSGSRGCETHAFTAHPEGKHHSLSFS
Chain of JAK2 kinase (O60674 whole entry): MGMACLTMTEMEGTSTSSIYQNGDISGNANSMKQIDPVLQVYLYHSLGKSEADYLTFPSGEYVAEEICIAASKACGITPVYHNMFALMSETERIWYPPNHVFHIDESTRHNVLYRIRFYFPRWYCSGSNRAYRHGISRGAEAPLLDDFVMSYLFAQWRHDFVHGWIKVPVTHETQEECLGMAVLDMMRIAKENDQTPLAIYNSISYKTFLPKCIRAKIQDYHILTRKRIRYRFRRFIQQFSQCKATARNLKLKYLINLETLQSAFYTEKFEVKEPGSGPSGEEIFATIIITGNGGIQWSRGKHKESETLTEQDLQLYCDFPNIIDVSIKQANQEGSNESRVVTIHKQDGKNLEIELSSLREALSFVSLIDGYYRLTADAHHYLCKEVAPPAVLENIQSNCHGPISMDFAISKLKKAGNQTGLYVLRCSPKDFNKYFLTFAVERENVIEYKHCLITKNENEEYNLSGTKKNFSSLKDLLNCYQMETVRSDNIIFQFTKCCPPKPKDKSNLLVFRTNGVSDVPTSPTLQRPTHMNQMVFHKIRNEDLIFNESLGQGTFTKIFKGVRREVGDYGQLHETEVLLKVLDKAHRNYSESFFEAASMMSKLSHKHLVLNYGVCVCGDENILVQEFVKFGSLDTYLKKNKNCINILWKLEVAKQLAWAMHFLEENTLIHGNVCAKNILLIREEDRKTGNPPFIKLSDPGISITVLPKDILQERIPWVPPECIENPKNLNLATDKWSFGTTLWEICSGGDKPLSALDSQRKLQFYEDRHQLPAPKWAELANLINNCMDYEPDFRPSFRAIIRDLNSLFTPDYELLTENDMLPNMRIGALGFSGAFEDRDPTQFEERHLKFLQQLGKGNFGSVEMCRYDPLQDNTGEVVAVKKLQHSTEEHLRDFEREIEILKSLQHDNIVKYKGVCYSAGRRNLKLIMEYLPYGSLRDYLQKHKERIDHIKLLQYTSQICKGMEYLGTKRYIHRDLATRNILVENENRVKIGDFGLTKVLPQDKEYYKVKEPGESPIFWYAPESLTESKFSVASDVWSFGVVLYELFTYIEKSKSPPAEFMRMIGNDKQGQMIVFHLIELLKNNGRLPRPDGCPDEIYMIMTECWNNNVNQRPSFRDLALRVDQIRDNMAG
Chain of JAK1 kinase (P23458 whole entry): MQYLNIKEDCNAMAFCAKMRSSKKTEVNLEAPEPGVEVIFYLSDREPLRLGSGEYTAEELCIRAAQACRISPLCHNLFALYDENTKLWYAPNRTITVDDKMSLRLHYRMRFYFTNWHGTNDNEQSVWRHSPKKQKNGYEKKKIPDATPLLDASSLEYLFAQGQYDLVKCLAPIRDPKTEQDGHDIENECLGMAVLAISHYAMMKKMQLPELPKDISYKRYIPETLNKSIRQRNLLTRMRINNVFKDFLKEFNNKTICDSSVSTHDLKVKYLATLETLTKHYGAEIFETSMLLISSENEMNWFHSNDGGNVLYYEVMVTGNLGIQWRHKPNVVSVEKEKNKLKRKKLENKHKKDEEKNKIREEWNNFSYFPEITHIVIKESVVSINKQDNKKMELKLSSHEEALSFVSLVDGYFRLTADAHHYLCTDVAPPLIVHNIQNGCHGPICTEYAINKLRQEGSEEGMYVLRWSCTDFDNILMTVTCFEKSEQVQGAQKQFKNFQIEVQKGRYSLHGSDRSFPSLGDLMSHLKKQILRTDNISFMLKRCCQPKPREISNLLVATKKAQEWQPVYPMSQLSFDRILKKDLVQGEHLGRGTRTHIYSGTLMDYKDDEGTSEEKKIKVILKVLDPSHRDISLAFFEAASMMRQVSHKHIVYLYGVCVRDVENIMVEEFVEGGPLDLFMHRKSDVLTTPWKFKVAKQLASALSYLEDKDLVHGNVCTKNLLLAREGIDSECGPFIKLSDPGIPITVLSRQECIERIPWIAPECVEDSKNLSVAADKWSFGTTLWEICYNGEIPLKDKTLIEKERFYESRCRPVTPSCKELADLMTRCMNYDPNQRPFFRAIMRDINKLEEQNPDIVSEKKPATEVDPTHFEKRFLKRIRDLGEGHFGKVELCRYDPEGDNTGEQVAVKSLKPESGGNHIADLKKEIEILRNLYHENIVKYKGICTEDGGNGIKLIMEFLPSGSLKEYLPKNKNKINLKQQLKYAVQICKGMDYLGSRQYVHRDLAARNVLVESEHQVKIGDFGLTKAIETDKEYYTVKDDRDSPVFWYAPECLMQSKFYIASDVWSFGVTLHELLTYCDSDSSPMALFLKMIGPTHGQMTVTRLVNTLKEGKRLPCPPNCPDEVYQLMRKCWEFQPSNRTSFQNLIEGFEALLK

SMILES: CN(c1ncnc2[nH]ccc12)[C@H]1C[C@@H]2CN(C(=O)CO)C[C@@H]2C1 [Example 6, 2-Hydroxy-1-((3aR,5S,6aS)-5-(methyl(7H-pyrrolo[2,3-d]pyrimidin-4-yl)amino)hexahydrocyclopenta[c]pyrrol-2(1H)-yl)ethanone]
- IC50 (JAK2 kinase): 45 nM
- IC50 (JAK3 kinase): 11 nM
- Vd/F [1]: 34.5 ± 21 L/kg
- AUC [1]: 2210 ± 1470 ng·h/mL
- CL/F [1]: 110 ± 71 mL/min/kg
- half-life [1]: 4.01 ± 1.52 h
- MRT [1]: 2.19 ± 0.6 h
- Cmax [1]: 1230 ± 549 ng/mL
- IC50 (JAK1 kinase): 5 nM

SMILES: CN(c1ncnc2[nH]ccc12)[C@H]1C[C@@H]2CN(C(=O)CCC#N)C[C@@H]2C1 [Example 22, 4-((3aR,5S,6aS)-5-(Methyl(7H-pyrrolo[2,3-d]pyrimidin-4-yl)amino)hexahydrocyclopenta[c]pyrrol-2(1H)-yl)-4-oxobutanenitrile]
- IC50 (JAK2 kinase): 54 nM
- Vd/F [1]: 9.39 ± 8.06 L/kg
- AUC [1]: 6990 ± 4560 ng·h/mL
- CL/F [1]: 34.6 ± 22.7 mL/min/kg
- half-life [1]: 2.87 ± 0.7 h
- MRT [1]: 2.6 ± 0.1 h
- Cmax [1]: 2960 ± 2110 ng/mL
- IC50 (JAK1 kinase): 16 nM

SMILES: COc1nsc(NC(=O)N2C[C@H]3C[C@H](N(C)c4ncnc5[nH]ccc45)C[C@H]3C2)n1 [Example 34, (3aR,5S,6aS)—N-(3-Methoxy-1,2,4-thiadiazol-5-yl)-5-(methyl(7H-pyrrolo[2,3-d]pyrimidin-4-yl)amino)hexahydrocyclopenta[c]pyrrole-2(1H)-carboxamide]
- IC50 (JAK2 kinase): 5 nM
- Vd/F [1]: 2.76 ± 1.53 L/kg
- AUC [1]: 14900 ± 10400 ng·h/mL
- CL/F [1]: 18.3 ± 14.2 mL/min/kg
- half-life [1]: 2.1 ± 0.73 h
- MRT [1]: 3.81 ± 0.82 h
- Cmax [1]: 2670 ± 1450 ng/mL
- IC50 (JAK1 kinase): 2 nM

SMILES: CC(=O)N1CC[C@H]2CC(N(C)c3ncnc4[nH]ccc34)C[C@H]2C1 (stereo partly drawn) [Example 35, 1-((4aS,7aR)-6-(Methyl(7H-pyrrolo[2,3-d]pyrimidin-4-yl)amino)hexahydro-1H-cyclopenta[c]pyridin-2(3H,4H,4aH,5H,6H,7H,7aH)-yl)ethanone]
- IC50 (JAK2 kinase): 16 nM
- Vd/F [1]: 10.4 ± 2.04 L/kg
- AUC [1]: 3080 ± 1340 ng·h/mL
- CL/F [1]: 63.3 ± 28 mL/min/kg
- half-life [1]: 2.11 ± 0.67 h
- MRT [1]: 3.02 ± 1.33 h
- Cmax [1]: 1220 ± 244 ng/mL
- IC50 (JAK1 kinase): 3 nM

SMILES: CCc1nsc(NC(=O)N2C[C@H]3C[C@H](N(C)c4ncnc5[nH]ccc45)C[C@H]3C2)n1 [Example 48, (3aR,5S,6aS)—N-(3-Ethyl-1,2,4-thiadiazol-5-yl)-5-(methyl(7H-pyrrolo[2,3-d]pyrimidin-4-yl)amino)hexahydrocyclopenta[c]pyrrole-2(1H)-carboxamide]
- IC50 (JAK2 kinase): 31 nM
- Vd/F [1]: 7.2 ± 8.11 L/kg
- AUC [1]: 9620 ± 7910 ng·h/mL
- CL/F [1]: 31.9 ± 26.9 mL/min/kg
- half-life [1]: 2.43 ± 0.75 h
- MRT [1]: 3.4 ± 0.91 h
- Cmax [1]: 2070 ± 1470 ng/mL
- IC50 (JAK1 kinase): 1 nM

SMILES: CN(c1ncnc2[nH]ccc12)[C@H]1C[C@@H]2CN(C(=O)Nc3nc(C4CC4)ns3)C[C@@H]2C1 [Example 49, (3aR,5S,6aS)—N-(3-Cyclopropyl-1,2,4-thiadiazol-5-yl)-5-(methyl(7H-pyrrolo[2,3-d]pyrimidin-4-yl)amino)hexahydrocyclopenta[c]pyrrole-2(1H)-carboxamide]
- IC50 (JAK2 kinase): 14 nM
- Vd/F [1]: 18.1 ± 20.7 L/kg
- AUC [1]: 6000 ± 4740 ng·h/mL
- CL/F [1]: 46.1 ± 35.6 mL/min/kg
- Cmax [1]: 1060 ± 677 ng/mL
- IC50 (JAK1 kinase): 0.2 nM

SMILES: CN(c1ncnc2[nH]ccc12)[C@H]1C[C@@H]2CN(C(=O)Nc3nc(CO)ns3)C[C@@H]2C1 [Example 50, (3aR,5S,6aS)—N-(3-(Hydroxymethyl)-1,2,4-thiadiazol-5-yl)-5-(methyl(7H-pyrrolo[2,3-d]pyrimidin-4-yl)amino)hexahydrocyclopenta[c]pyrrole-2(1H)-carboxamide]
- IC50 (JAK2 kinase): 7 nM
- IC50 (JAK3 kinase): 201 nM
- IC50 (JAK1 kinase): 0.5 nM

SMILES: CN(c1ncnc2[nH]ccc12)[C@H]1C[C@@H]2CN(CC(F)(F)F)C[C@@H]2C1 [Example 56, N-methyl-N-((3aR,5S,6aS)-2-(2,2,2-trifluoroethyl)octahydrocyclopenta[c]pyrrol-5-yl)-7H-pyrrolo[2,3-d]pyrimidin-4-amine]
- IC50 (JAK2 kinase): 32 nM
- IC50 (JAK3 kinase): 75 nM
- IC50 (JAK1 kinase): 11 nM

SMILES: CN(c1ncnc2[nH]ccc12)[C@@H]1C[C@@H]2CN(CC#N)C[C@@H]2C1 [Example 69, 2-((3aR,5R,6aS)-5-(methyl(7H-pyrrolo[2,3-d]pyrimidin-4-yl)amino)hexahydrocyclopenta[c]pyrrol-2(1H)-yl)acetonitrile]
- IC50 (JAK2 kinase): 4 nM
- IC50 (JAK3 kinase): 20 nM
- IC50 (JAK1 kinase): 5 nM

- IC50 (JAK3 kinase): 110 nM
SMILES: CN(c1ncnc2[nH]ccc12)[C@H]1C[C@@H]2CN(C(=O)C(O)C(F)(F)F)C[C@@H]2C1 (stereo partly drawn) [Example 97, 3,3,3-trifluoro-2-hydroxy-1-((3aR,5S,6aS)-5-(methyl(7H-pyrrolo[2,3-d]pyrimidin-4-yl)amino)hexahydrocyclopenta[c]pyrrol-2(1H)-yl)propan-1-one]

- IC50 (JAK2 kinase): 146 nM
- IC50 (JAK3 kinase): 101 nM
- IC50 (JAK1 kinase): 96 nM
SMILES: CN(c1ncnc2[nH]ccc12)[C@H]1C[C@@H]2CN(C(=O)OCC(F)(F)F)C[C@@H]2C1 [Example 111, (3aR,5S,6aS)-2,2,2-trifluoroethyl 5-(methyl(7H-pyrrolo[2,3-d]pyrimidin-4-yl)amino)hexahydrocyclopenta[c]pyrrole-2(1H)-carboxylate]

SMILES: CN(c1ncnc2[nH]cc(F)c12)[C@H]1C[C@@H]2CN(C(=O)CO)C[C@@H]2C1 [Example 128, 1-((3aR,5S,6aS)-5-((5-fluoro-7H-pyrrolo[2,3-d]pyrimidin-4-yl)(methyl)amino)hexahydrocyclopenta[c]pyrrol-2(1H)-yl)-2-hydroxyethanone]
- IC50 (JAK3 kinase): 4 nM
- Vd/F [1]: 11.4 ± 4.15 L/kg
- AUC [1]: 2320 ± 1030 ng·h/mL
- CL/F [1]: 84.3 ± 37.8 mL/min/kg
- half-life [1]: 1.62 ± 0.28 h
- Cmax [1]: 1420 ± 150 ng/mL
- IC50 (JAK1 kinase): 13 nM

- IC50 (JAK3 kinase): 17 nM
- IC50 (JAK1 kinase): 36 nM
SMILES: CN(c1ncnc2[nH]c(F)cc12)[C@H]1C[C@@H]2CN(C(=O)CO)C[C@@H]2C1 [Example 129, 1-((3aR,5S,6aS)-5-((6-fluoro-7H-pyrrolo[2,3-d]pyrimidin-4-yl)(methyl)amino)hexahydrocyclopenta[c]pyrrol-2(1H)-yl)-2-hydroxyethanone]

- IC50 (JAK3 kinase): 90 nM
SMILES: CN(C[C@H]1[C@@H]2CN(C(=O)OC(C)(C)C)C[C@@H]21)c1ncnc2[nH]ccc12 [Example 133, (1R,5S,6S)-tert-butyl 6-((methyl(7H-pyrrolo[2,3-d]pyrimidin-4-yl)amino)methyl)-3-azabicyclo[3.1.0]hexane-3-carboxylate]

- IC50 (JAK2 kinase): 127 nM
- IC50 (JAK3 kinase): 203 nM
- IC50 (JAK1 kinase): 106 nM
SMILES: CC(C)C(=O)N1CC[C@H]2C[C@@H](N(C)c3ncnc4[nH]ccc34)C[C@H]2C1 [Example 151, 2-methyl-1-((4aS,6R,7aR)-6-(methyl(7H-pyrrolo[2,3-d]pyrimidin-4-yl)amino)hexahydro-1H-cyclopenta[c]pyridin-2(3H)-yl)propan-1-one]
